Source: US20180000750A1, “ANTIPLATELET AGENT AND USES THEREOF” (priority 2015, published 2018)
pIC50: −log10 of the molar value. Blank lines part the entries; values can stand above or below the compound they belong to.

Assays:
[1] = biological target: T1, platelet glycoprotein (GP) IIb/IIIa receptors (Homo sapiens, UniProt P05106+P08514); test: VerifyNow GPIIb/IIIa assay (PAU); type: cell-based; conditions: no treatment 161
T1 construct: It is a whole-blood assay based on light transmission measurements; endogenous in cells; host or cells: platelets in citrated whole blood of healthy volunteers
T1 sequence (P08514 32-887 limits assumed): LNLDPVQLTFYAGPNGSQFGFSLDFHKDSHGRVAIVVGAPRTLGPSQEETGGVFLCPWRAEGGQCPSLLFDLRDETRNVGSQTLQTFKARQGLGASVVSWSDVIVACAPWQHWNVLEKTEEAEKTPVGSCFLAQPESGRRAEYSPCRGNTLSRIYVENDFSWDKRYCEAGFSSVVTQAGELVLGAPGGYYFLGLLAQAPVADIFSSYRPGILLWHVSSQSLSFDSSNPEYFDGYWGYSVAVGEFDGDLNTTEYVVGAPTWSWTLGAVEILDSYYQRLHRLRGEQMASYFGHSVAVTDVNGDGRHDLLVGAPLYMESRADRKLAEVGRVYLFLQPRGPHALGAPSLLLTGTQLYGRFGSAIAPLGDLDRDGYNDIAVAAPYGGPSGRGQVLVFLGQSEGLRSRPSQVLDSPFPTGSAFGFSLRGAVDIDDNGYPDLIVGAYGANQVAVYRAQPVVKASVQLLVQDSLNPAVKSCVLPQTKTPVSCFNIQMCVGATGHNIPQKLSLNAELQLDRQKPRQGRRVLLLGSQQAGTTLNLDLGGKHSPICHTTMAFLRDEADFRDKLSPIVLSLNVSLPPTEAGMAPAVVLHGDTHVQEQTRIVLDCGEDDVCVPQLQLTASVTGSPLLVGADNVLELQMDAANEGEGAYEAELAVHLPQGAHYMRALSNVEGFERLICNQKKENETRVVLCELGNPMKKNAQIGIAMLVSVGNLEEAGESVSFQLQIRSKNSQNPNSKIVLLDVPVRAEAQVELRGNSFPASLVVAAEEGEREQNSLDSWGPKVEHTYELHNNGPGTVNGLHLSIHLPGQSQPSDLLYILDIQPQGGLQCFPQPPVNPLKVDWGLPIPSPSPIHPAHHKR
T1 sequence (P08514 891-1039 limits assumed): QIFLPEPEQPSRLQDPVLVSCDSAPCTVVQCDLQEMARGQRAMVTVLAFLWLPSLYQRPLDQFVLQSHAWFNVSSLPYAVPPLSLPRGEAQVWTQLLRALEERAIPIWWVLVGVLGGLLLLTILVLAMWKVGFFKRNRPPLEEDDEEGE
T1 sequence (P05106 27-788): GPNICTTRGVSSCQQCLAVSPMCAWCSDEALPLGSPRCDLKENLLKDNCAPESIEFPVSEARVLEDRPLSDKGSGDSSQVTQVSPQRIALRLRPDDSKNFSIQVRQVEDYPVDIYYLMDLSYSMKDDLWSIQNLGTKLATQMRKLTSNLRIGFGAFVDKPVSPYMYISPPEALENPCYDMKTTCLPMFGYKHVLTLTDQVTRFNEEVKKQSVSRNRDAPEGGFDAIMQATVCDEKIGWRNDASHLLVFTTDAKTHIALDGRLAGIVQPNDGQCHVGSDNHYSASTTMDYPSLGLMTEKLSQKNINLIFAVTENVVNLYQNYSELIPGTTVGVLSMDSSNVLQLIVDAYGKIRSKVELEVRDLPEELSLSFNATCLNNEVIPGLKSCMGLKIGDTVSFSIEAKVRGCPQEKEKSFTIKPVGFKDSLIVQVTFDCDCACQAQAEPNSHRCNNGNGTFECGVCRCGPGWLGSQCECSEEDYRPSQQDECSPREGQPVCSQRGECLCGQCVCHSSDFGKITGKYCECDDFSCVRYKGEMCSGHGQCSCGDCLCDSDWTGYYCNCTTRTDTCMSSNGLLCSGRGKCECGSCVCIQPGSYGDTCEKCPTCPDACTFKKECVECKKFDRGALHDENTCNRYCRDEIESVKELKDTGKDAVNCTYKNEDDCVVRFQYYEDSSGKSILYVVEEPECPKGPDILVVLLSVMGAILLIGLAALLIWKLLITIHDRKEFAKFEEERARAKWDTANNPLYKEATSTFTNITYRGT
Source text: (§1) It is a whole-blood assay based on light transmission measurements. The assay is a turbidimetric-based optical detection system that, like optical aggregometry, depends on the ability of activated platelets to bind fibrinogen. When platelets are activated, they form aggregates with fibrinogen-coated beads and the light transmission through the samples increases. Arachidonic acid, ADP and thrombin receptor activating peptide are the corresponding agonists used in VerifyNow system to specifically differentiate the platelet activation pathways. In the aspirin-specific assay, the degree of aggregation attenuated by aspirin, which blocks the arachidonic acid pathway, is quantified according to a corresponding decrease in light transmission and is reported as aspirin reaction units (ARU). ARU value less than 550 indicates adequate platelet inhibition by aspirin treatment. The residual activity of platelet after inhibition on P2Y12 receptor is represented as the P2Y12 reaction units (PRU). The normal PRU distribution range without anti-platelet therapy is 194-418. P2Y12 antagonist like clopidogrel and ticagrelor may be used as the positive control. […] The reference range was 125-330. Aggrastat may be used as the positive control medication for PAU value.
(§2) The VerifyNow P2Y12 system measures the rate and extent of changes in light transmittance caused by platelets aggregating in whole blood samples.

[2] = test system: arachidonic acid pathway; test: VerifyNow aspirin assay (ARU); type: cell-based, human; conditions: no treatment 660
Source text: as §1, §2

[3] = biological target: T2, P2Y12 receptor (Homo sapiens, UniProt Q9H244); test: VerifyNow P2Y12 assay (PRU); type: cell-based; conditions: no treatment 314
T2 construct: It is a whole-blood assay based on light transmission measurements; endogenous in cells; host or cells: platelets in citrated whole blood of healthy volunteers
T2 sequence (Q9H244 whole entry): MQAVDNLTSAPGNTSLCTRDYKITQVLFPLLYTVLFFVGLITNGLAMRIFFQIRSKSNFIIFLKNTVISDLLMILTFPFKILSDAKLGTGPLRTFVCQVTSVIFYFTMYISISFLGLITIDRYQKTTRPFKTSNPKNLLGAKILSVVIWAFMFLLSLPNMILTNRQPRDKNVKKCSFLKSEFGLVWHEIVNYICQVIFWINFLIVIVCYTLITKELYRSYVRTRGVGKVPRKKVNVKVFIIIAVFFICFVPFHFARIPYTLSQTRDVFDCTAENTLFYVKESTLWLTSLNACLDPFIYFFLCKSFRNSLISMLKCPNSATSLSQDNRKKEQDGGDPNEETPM
Source text: as §1, §2

[4] = Occlusion time for irradiation induced platelet plug formation in mesenteric venules; type: in vivo, ICR mice; conditions: mice, DMSO vehicle 241±6.8 sec
Source text: (§3) ICR mice (7-8 weeks old, each weighted about 18 to 25 g) were used in this study. All mice were maintained in the animal facility under 12 hrs light/dark cycle, with ad libitum access to food and water.
In this example, the effects of Physalin B on the aggregation of platelets were investigated by the measurement of the occlusion time for irradiation induced platelet plug formation. Briefly, mice were respectively treated with normal saline, DMSO vehicle, and Physalin B (i.e., 0.025, 0.05, or 0.1 mg/g), then the mesentertic venules were selected for irradiation to induce microthrombus formation. The occlusion time was defined as the time in which the platelet plug was first observed. Results are illustrated in FIG. 3.

[5] = Tail bleeding time; type: in vivo, ICR mice; conditions: mice, intraperitoneal, 0.1 mg/Kg, cut 30 minutes after treatment; DMSO vehicle 83.1±11.7 sec
Source text: as §3
Briefly, the test mice were randomly divided into three groups, in which the control mice received intraperitoneal injection of normal saline, whereas mice in the vehicle and the test groups respectively received intraperitoneal injection of the vehicle (i.e., DMSO) and Physalin B (i.e., […]). A cut (about 2-3 mm in length) was incised on the tail vein of each mice (about 3-5 cm from the tip of the tail) 30 minutes after the indicated treatment, then the blood was collected into a warm saline, in which the volume and the time to cessation of bleeding were both measured. Bleeding time was defined as the time in which the first cessation of bleeding was observed. Results are illustrated in FIG. 2.

[6] = test system: platelets; test: PFA-100 platelet function, collagen/epinephrine (CEPI) cartridge closure time; type: cell-based, human; conditions: 10 μM, collagen-epinephrine stimulus, citrated whole blood; control 125 sec
Procedure: (§4) Ten healthy, non-smoking volunteers (6 women, 4 men), ages 23-39 years old, participated in this study. The citrated whole blood samples were incubated at room temperature for 60 min. with physalin B (dissolved in 0.5% DMSO) or the vehicle alone. Platelet function measurement was performed with a PFA-100 analyzer system (Dade-Behring, Marburg, Germany). The PFA-100TM device measures the closure time (CT) required for platelets to plug an aperture simulating an injured vessel after platelet activation by relevant stimuli, namely collagen-epinephrine (EPI) or collagen-ADP (ADP). The maximum value for closure time is 300 seconds and values greater than 300 seconds are reported as non-closure. The closure time was determined with duplicate samples of 800 μL using cartridges containing collagen-epinephrine or collagen-ADP membranes.
(§5) The PFA-100 system is a platelet function analyzer designed to measure platelet-related primary hemostasis. The system uses two disposable cartridges: a collagen/epinephrine (CEPI) and a collagen/ADP (CADP) cartridge.

[7] = test system: adhesion of THP-1 to HUVECs; test: THP-1 cell adhesion to TNF-α-activated HUVECs; type: cell-based, human; conditions: 80 μM, TNF-α-exposed cells, compared to TNF-α alone
Procedure: HUVECs were starved in serum-free medium for 1 hour before treatments. For adhesion assays, HUVECs monolayers in 96-well plates were treated for 2 hours with physalin B and/or TNF-α for 4 hours. After treatment, 1×10^6 THP-1 cells labeled with 5 μM calcein-AM were seeded onto confluent HUVECs and co-cultured for 30 min at 37° C. in 5% CO2 incubator. Non-adherent THP-1 cells were removed by washing with 1× phosphate buffered saline (PBS) twice. Cell images were collected by a fluorescence microscope (Zeiss) and quantified using a fluorescence microplate reader at an excitation wavelength of 490 nm and an emission wavelength of 525 nm (Bio-Tek Synergy HT).
The in vitro adhesion of THP-1 to HUVECs was monitored by use of a fluorescence dye, Calcein-AM, which stains only the viable cells. Briefly, THP-1 cells were labeled with calcein-AM first, then co-cultured with physalin B pre-treated HUVECs in the presence of TNF-α, which was added to induce inflammation. The fluorescence intensity at 525 nm was then measured.

[8] = test system: platelets; test: PFA-100 platelet function, collagen/ADP (CADP) cartridge closure time; type: cell-based, human; conditions: 10 μM, collagen/ADP stimulus, citrated whole blood
Procedure: as §4, §5

[9] = test system: late EPCs; test: MTT cell viability, late EPCs; type: cell-based, human; conditions: 48 hrs, read-out: IC50 (cytotoxicity, MTT)
Procedure: Two different types of EPCs were cultured from adult peripheral blood and defined as early EPCs and late EPCs according to their time-dependent appearance. […] Peripheral blood (20 mL) was obtained from donors with informed consent. The mononuclear cells were fractionated from other components of peripheral blood by centrifugation on Histopaque 1077 (Sigma, St. Louis, Mo.), with gradients according to the manufacturer's instructions. The isolated mononuclear cells were re-suspended with a EGM-2 BulletKit system (catalog number CC-3162; Clonetics™) consisting of an endothelial basal medium, 5% fetal bovine serum, hEGF, VEGF, hFGF-B, IGF-1, ascorbic acid, and heparin; 1×10^7 mononuclear cells per well were seeded on 2% gelatin-coated 6-well plates (Sigma, St. Louis, Mo.) and incubated in a 5% CO2 incubator at 37° C. […]
Cell viability was measured with blue formazan that was metabolized from 3-(4,5-dimethylthiazol-2-yl)-2, 5-diphenyl tetrazolium bromide (MTT, Amresco USA) in mitochondria, which is active only in live cells. […] The absorbance of each well was measured at 540 nm with an ELISA reader and the percentage viability was calculated.
The in vitro cytotoxic effect of physalin B on HUVEC and EPCs were respectively determined by MTT assay, in which cells were exposed to various concentrations of physalin B (i.e., 0, 20, 40, 80 and 160 μM). […]

[10] = test system: platelets; test: Lactate dehydrogenase release from platelets (cytotoxicity); type: cell-based; conditions: up to 160 μM, 30 min at 37° C.
Procedure: Cytotoxicity of physalin B on platelets were evaluated by measuring the release of lactate dehydrogenase (LDH). Platelets were suspended in Tyrodes's solution at a concentration of 3×10^8 platelets/ml. For positive control, platelets were disrupted by sonication at 4° C. for 30 sec at 40 kHz with a Biosonic Sonicator. The supernatant was used for LDH determinations. LDH activity was measured as an increase in the absorbance of NADH at 340 nm using lactate as substrates. The tests were carried out with a Toshiba Medical automatic chemical analyzer, TBA-200FR (Toshiba Medical products). The platelets were pretreated with various concentrations of physalin B for 30 min at 37° C., and the supernatant was used to measure the LDH activity.
In this example, the cytotoxic effect of physalin B on platelets was investigated by measuring the activity of lactate dehydrogenase (LDH) released from the ruptured platelets. The platelets were exposed to various concentrations of physalin B (PHB) or DMSO, which was used as the vehicle control, while sonication ruptured platelets served as a positive control. The final concentration of DMSO in the test medium was less than 0.1%. Results are depicted in FIG. 4.

[11] = test system: HUVECs; test: MTT cell viability, HUVECs; type: cell-based, human; conditions: 48 hrs, read-out: IC50 (cytotoxicity, MTT)
Procedure: HUVECs were purchased from American Type Culture Collection (ATCC) and were cultivated in endothelal cell nutrient medium consisting of 20% heat-inactivated fetal bovine serum (FBS), 80% Medium 199 (M199) buffered with 25 mM HEPES and supplemented with 2 mM L-Glutamine and 100 U/ml K-Penicillin and 100 μg/mL streptomycin, and kept at 37° C. in a 5% CO2 atmosphere.
Cell viability was measured with blue formazan that was metabolized from 3-(4,5-dimethylthiazol-2-yl)-2, 5-diphenyl tetrazolium bromide (MTT, Amresco USA) in mitochondria, which is active only in live cells. HUVEC and late EPCs were seeded in a 96-well plate at a density of 1×10^5 cells per well, cultured overnight and pretreated with various concentrations of physalin B. After incubation for 6 hr, 24 hr and 48 hr, the MTT (5 mg/ml) colorimetric viability test was used to determine the viability of cells. The absorbance of each well was measured at 540 nm with an ELISA reader and the percentage viability was calculated.
The in vitro cytotoxic effect of physalin B on HUVEC and EPCs were respectively determined by MTT assay, in which cells were exposed to various concentrations of physalin B (i.e., 0, 20, 40, 80 and 160 μM). Results are illustrated in FIGS. 5A and 5B.

[12] = reference drug treatment, normal range 194-418

GPIIb/IIIa (PAU) ([1]; reference drug treatment, reference range 125-330): 1 PAU
SMILES: CCCCS(=O)(=O)N[C@@H](Cc1ccc(OCCCCC2CCNCC2)cc1)C(=O)O [Aggrastat, reference compound]

P2Y12 (PRU) [3, 12]: 263 PRU
SMILES: COC(=O)[C@H](c1ccccc1Cl)N1CCc2sccc2C1 [Clopidogrel, reference compound]

P2Y12 (PRU) [3, 12]: 1 PRU
SMILES: CCCSc1nc(N[C@@H]2C[C@H]2c2ccc(F)c(F)c2)c2nnn([C@@H]3C[C@H](OCCO)[C@@H](O)[C@H]3O)c2n1 [Ticagrelor, reference compound]

The next lines start with the compound.

SMILES: CC(=O)Oc1ccccc1C(=O)O [Aspirin, Acetylsalicylic acid, reference compound]
Aspirin (ARU) ([2]; reference drug treatment, <550 indicates adequate inhibition): 404 ARU

SMILES: C[C@]12C(=O)C=CCC1=CC[C@@H]1[C@@H]2CC[C@]2(O)C(=O)O[C@@]3(C)[C@H]4C[C@]5(C)[C@@H](CO[C@@]16O[C@@]32[C@H]5C6=O)C(=O)O4 [Physalin B]
occlusion time ([4]; 0.025 mg/g): 349 ± 12.3 s | occlusion time ([4]; 0.05 mg/g): 390 ± 7 s | occlusion time ([4]; 0.1 mg/g): 415 ± 34.5 s | tail bleeding time [5]: 224.4 ± 58.9 s | P2Y12 (PRU) ([3]; 20 μM): 226 PRU | P2Y12 (PRU) ([3]; 50 μM): 65 PRU | closure time [6]: 260 s | GPIIb/IIIa (PAU) ([1]; 20 μM): 144 PAU | GPIIb/IIIa (PAU) ([1]; 50 μM): 129 PAU | inhibition on the adhesion of THP-1 to HUVECs [7]: about 35% | Aspirin (ARU) ([2]; 20 μM): 469 ARU | Aspirin (ARU) ([2]; 50 μM): 366 ARU | closure time [8]: statistically significant prolonged closure time | pIC50 [9]: 4.12 | LDH release from platelets [10]: no obvious LDH release | pIC50 [11]: 4.52
